According to ChEMBL document CHEMBL5143537, “Quinazoline-based hydroxamic acid derivatives as dual histone methylation and deacetylation inhibitors for potential anticancer agents” (Bioorg Med Chem, 2022):

What was measured:
HepG2 [1] = experiment: Induction of apoptosis in human HepG2 cells assessed as viable cells at 10 uM measured after 48 hrs by Annexin V-FITC/propidium iodide staining based flow cytometry (reference value: 88.58%); format: functional; conditions: read-out: Activity
HepG2 [2] = experiment: Induction of apoptosis in human HepG2 cells assessed as viable cells at 20 uM measured after 48 hrs by Annexin V-FITC/propidium iodide staining based flow cytometry (reference value: 88.58%); format: functional; conditions: read-out: Activity
A-431 = experiment: Antiproliferative activity against human A-431 cells measured after 72 hrs by MTT assay; format: functional, cell-based; conditions: A-431, 72 h
[3] = Cytotoxicity against human HL7702 cells measured after 72 hrs by MTT assay; conditions: HL7702 (L02) cells
HepG2 [4] = experiment: Antimigratory activity against human HepG2 cells measured after 24 hrs by wound healing assay; format: functional, cell-based; conditions: dose 1.5-5 µM, DDE = dose-dependent effect

IC50 (A-431): 2.38 µM
Compound: COc1cc2nc(N3CCN(CCCCCC(=O)NO)CC3)nc(NC3CCN(Cc4ccccc4)CC3)c2cc1OC
viability at 10 µM (HepG2 [1]): 77.8% | viability at 20 µM (HepG2 [2]): 33.1% | IC50 at 72 h [3]: 39.8 µM | Activity (HepG2 [4]): Dde
